In US10597388B2, “Pyridazinone herbicides” (FMC CORPORATION, priority 2014, dated 2020):

Columns and labels:
Assay type in all cases: in vivo
soybean (Glycine max) = experiment: Test C greenhouse herbicide test, pre- and postemergence
How it was run: (§1)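 Each species was treated both before emergence, in a loam–sand soil mix, and after emergence, as 1- to 4-leaf seedlings in peat-based potting medium. Plants stayed in the greenhouse 13 to 15 d, then were scored from 0 (no effect) to 100 (complete control) relative to controls.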

[1] = system: johnsongrass (Sorghum halepense); experiment: as above
How it was run: as §1

[2] = system: nutsedge, yellow (yellow nutsedge, Cyperus esculentus); experiment: as above
How it was run: as §1

[3] = system: galium (catchweed bedstraw, Galium aparine); experiment: Test A greenhouse herbicide test, postemergence
How it was run: (§2)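 Plants grown in loam soil/sand blend pots were treated postemergence at 2 to 10 cm height, one- to two-leaf stage, with formulated test chemicals. After approximately 10 d in a greenhouse, injury was rated visually against untreated controls on a 0 to 100 scale (0 no effect, 100 complete control).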

[4] = system: blackgrass (Alopecurus myosuroides); experiment: Test A greenhouse herbicide test, postemergence
How it was run: as §2

[5] = system: oat, wild (wild oat, Avena fatua); experiment: Test C greenhouse herbicide test, postemergence
How it was run: (§3)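 Plants grown in potting mix of peat moss, vermiculite, wetting agent and starter nutrients were sprayed postemergence at 2 to 18 cm height (1- to 4-leaf stage). After 13 to 15 d in the greenhouse, injury was visually rated against untreated controls on a 0–100 scale (0 no effect, 100 complete control).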

[6] = system: chickweed (common chickweed, Stellaria media); experiment: Test C greenhouse herbicide test, postemergence
How it was run: as §3

kochia (Kochia scoparia) = experiment: Test C greenhouse herbicide test, postemergence
How it was run: as §3

rice (Oryza sativa) = experiment: Test B flooded paddy test; conditions: 250 g ai/ha, Flood; visual rating on scale of 0 to 100 where 0 is no effect and 100 is complete control; 13 to 15 d after treatment
How it was run: (§4)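 Plants at the 2-leaf stage were flooded to 3 cm above soil, and test compounds were applied directly into the paddy water, which was held at that depth throughout. After 13 to 15 d in a greenhouse, injury was rated visually against untreated controls on a 0–100 scale (0 no effect, 100 complete control).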

[7] = system: barnyardgrass (Echinochloa crus-galli); experiment: Test B flooded paddy test; conditions: 250 g ai/ha, Flood; visual rating on scale of 0 to 100 where 0 is no effect and 100 is complete control; 13 to 15 d after treatment
How it was run: as §4

[8] = system: ducksalad (Heteranthera limosa); experiment: Test B flooded paddy test; conditions: 250 g ai/ha, Flood; visual rating on scale of 0 to 100 where 0 is no effect and 100 is complete control; 13 to 15 d after treatment
How it was run: as §4

[9] = system: sedge, umbrella (small-flower umbrella sedge, Cyperus difformis); experiment: Test B flooded paddy test; conditions: 250 g ai/ha, Flood; visual rating on scale of 0 to 100 where 0 is no effect and 100 is complete control; 13 to 15 d after treatment
How it was run: as §4

[10] = Postemergence, 31 g ai/ha, scale 0 to 100 (0 no effect, 100 complete control)
[11] = Postemergence, 62 g ai/ha, 0 to 100 scale (0 no effect, 100 complete control)
[12] = Postemergence, 125 g ai/ha, scale 0 to 100, 0 is no effect, 100 is complete control
[13] = Postemergence, 250 g ai/ha, scale 0 to 100, 0 no effect, 100 complete control, 13 to 15 d
[14] = 125 g ai/ha, 0 to 100 scale where 0 is no effect and 100 is complete control
[15] = 500 g ai/ha, visual rating after approx. 10 d, 0 to 100 scale (0 no effect, 100 complete control)
[16] = postemergence, 125 g ai/ha, scale 0 to 100, 0 no effect, 100 complete control
[17] = Preemergence, 31 g ai/ha, scale 0 to 100, 0 is no effect, 100 is complete control
[18] = Preemergence, 62 g ai/ha, scale 0 to 100, 0 is no effect, 100 is complete control
[19] = Preemergence, 125 g ai/ha, scale 0 to 100, 0 is no effect, 100 is complete control
[20] = Preemergence, 250 g ai/ha, scale 0 to 100, 0 no effect, 100 complete control

Structure (SMILES): Cc1nn(C)c(=O)c(-c2cccc3ccc(Br)cc23)c1O [Compound 126]
- Plant response rating, Soybean (soybean (Glycine max); [10]): 5
- Soybean plant response rating (soybean (Glycine max); [11]): 10
- Plant response rating, Soybean (soybean (Glycine max); [12]): 20
- Plant response rating, Soybean (soybean (Glycine max); [13]): 35
- Plant response rating, Johnsongrass [1, 10]: 10
- Johnsongrass plant response rating [1, 11]: 10
- Plant response rating, Johnsongrass [1, 12]: 15
- Plant response rating, Johnsongrass [1, 13]: 25
- Plant response rating, Nutsedge, Yellow [2, 10]: 35
- Nutsedge, Yellow plant response rating [2, 11]: 60
- Plant response rating, Nutsedge, Yellow [2, 12]: 70
- Plant response rating, Nutsedge, Yellow [2, 13]: 85
- Plant response rating, Galium [3, 14]: 100
- Plant response rating, Galium [3, 15]: 100
- Plant response rating, Blackgrass [4, 14]: 60
- Plant response rating, Blackgrass [4, 15]: 70
- Plant response rating, Oat, Wild [5, 10]: 60
- Oat, Wild plant response rating [5, 11]: 80
- Plant response rating, Oat, Wild [5, 12]: 90
- Plant response rating, Oat, Wild [5, 13]: 85
- Plant response rating, Chickweed [6, 10]: 90
- Chickweed plant response rating [6, 11]: 90
- Plant response rating, Chickweed [6, 12]: 95
- Plant response rating, Chickweed [6, 13]: 100
- Plant response rating, Kochia (kochia (Kochia scoparia); [10]): 90
- Kochia plant response rating (kochia (Kochia scoparia); [11]): 90
- Plant response rating, Kochia (kochia (Kochia scoparia); [12]): 95
- Plant response rating, Kochia (kochia (Kochia scoparia); [13]): 95
- Plant response rating, Rice (rice (Oryza sativa)): 0
- Plant response rating, Barnyardgrass [7]: 0
- Plant response rating, Ducksalad [8]: 30
- Plant response rating, Sedge, Umbrella [9]: 0

Structure (SMILES): COC(=O)Oc1c(C)nn(C)c(=O)c1-c1ccc(F)c2ccccc12 [Compound 130]
- Plant response rating, Soybean (soybean (Glycine max); [10]): 10
- Soybean plant response rating (soybean (Glycine max); [11]): 15
- Plant response rating, Soybean (soybean (Glycine max); [13]): 50
- Soybean plant response rating (soybean (Glycine max); [16]): 25
- Plant response rating, Johnsongrass [1, 10]: 5
- Johnsongrass plant response rating [1, 11]: 5
- Plant response rating, Johnsongrass [1, 13]: 20
- Johnsongrass plant response rating [1, 16]: 5
- Plant response rating, Nutsedge, Yellow [2, 10]: 55
- Nutsedge, Yellow plant response rating [2, 11]: 75
- Plant response rating, Nutsedge, Yellow [2, 13]: 85
- Nutsedge, Yellow plant response rating [2, 16]: 80
- Plant response rating, Galium [3, 14]: 100
- Plant response rating, Galium [3, 15]: 100
- Plant response rating, Blackgrass [4, 14]: 60
- Plant response rating, Blackgrass [4, 15]: 70
- Plant response rating, Oat, Wild [5, 10]: 60
- Oat, Wild plant response rating [5, 11]: 80
- Plant response rating, Oat, Wild [5, 13]: 95
- Oat, Wild plant response rating [5, 16]: 85
- Plant response rating, Chickweed [6, 10]: 90
- Chickweed plant response rating [6, 11]: 95
- Plant response rating, Chickweed [6, 13]: 100
- Chickweed plant response rating [6, 16]: 98
- Plant response rating, Kochia (kochia (Kochia scoparia); [10]): 95
- Kochia plant response rating (kochia (Kochia scoparia); [11]): 95
- Plant response rating, Kochia (kochia (Kochia scoparia); [13]): 100
- Kochia plant response rating (kochia (Kochia scoparia); [16]): 100
- Plant response rating, Rice (rice (Oryza sativa)): 0
- Plant response rating, Barnyardgrass [7]: 0
- Plant response rating, Ducksalad [8]: 0
- Plant response rating, Sedge, Umbrella [9]: 0

Structure (SMILES): CC(=O)Oc1c(C)nn(C)c(=O)c1-c1c(C)sc2ccc(C(F)(F)F)cc12 [Compound 132]
- Plant response rating, Soybean (soybean (Glycine max); [10]): 0
- Soybean plant response rating (soybean (Glycine max); [11]): 0
- Plant response rating, Soybean (soybean (Glycine max); [13]): 20
- Plant response rating, Soybean (soybean (Glycine max); [17]): 0
- Plant response rating, Soybean (soybean (Glycine max); [18]): 0
- Plant response rating, Soybean (soybean (Glycine max); [19]): 0
- Soybean plant response rating (soybean (Glycine max); [20]): 0
- Soybean plant response rating (soybean (Glycine max); [16]): 0
- Plant response rating, Johnsongrass [1, 10]: 0
- Johnsongrass plant response rating [1, 11]: 5
- Plant response rating, Johnsongrass [1, 13]: 10
- Plant response rating, Johnsongrass [1, 17]: 15
- Plant response rating, Johnsongrass [1, 18]: 10
- Plant response rating, Johnsongrass [1, 19]: 55
- Johnsongrass plant response rating [1, 20]: 25
- Johnsongrass plant response rating [1, 16]: 5
- Plant response rating, Nutsedge, Yellow [2, 10]: 30
- Nutsedge, Yellow plant response rating [2, 11]: 55
- Plant response rating, Nutsedge, Yellow [2, 13]: 85
- Plant response rating, Nutsedge, Yellow [2, 17]: 10
- Plant response rating, Nutsedge, Yellow [2, 18]: 35
- Plant response rating, Nutsedge, Yellow [2, 19]: 45
- Nutsedge, Yellow plant response rating [2, 20]: 75
- Nutsedge, Yellow plant response rating [2, 16]: 75
- Plant response rating, Galium [3, 14]: 80
- Plant response rating, Galium [3, 15]: 100
- Plant response rating, Blackgrass [4, 14]: 30
- Plant response rating, Blackgrass [4, 15]: 50
- Plant response rating, Oat, Wild [5, 10]: 40
- Oat, Wild plant response rating [5, 11]: 60
- Plant response rating, Oat, Wild [5, 13]: 90
- Oat, Wild plant response rating [5, 16]: 70
- Plant response rating, Chickweed [6, 10]: 90
- Chickweed plant response rating [6, 11]: 90
- Plant response rating, Chickweed [6, 13]: 95
- Chickweed plant response rating [6, 16]: 95
- Plant response rating, Kochia (kochia (Kochia scoparia); [10]): 85
- Kochia plant response rating (kochia (Kochia scoparia); [11]): 90
- Plant response rating, Kochia (kochia (Kochia scoparia); [13]): 95
- Kochia plant response rating (kochia (Kochia scoparia); [16]): 95
- Plant response rating, Rice (rice (Oryza sativa)): 0
- Plant response rating, Barnyardgrass [7]: 0
- Plant response rating, Ducksalad [8]: 0
- Plant response rating, Sedge, Umbrella [9]: 0
